Results on one compound are retold here after article PMC3389674, “Comparison of Soluble Guanylate Cyclase Stimulators and Activators in Models of Cardiovascular Disease Associated with Oxidative Stress” (Frontiers in Pharmacology, 2012).

Some results are limits rather than exact numbers.

Data set [1] has as its system all other proteins tested (human enzymes, ion channels, transporters, and G-protein-coupled receptors). The data set can be described thus: in vitro selectivity profile: cell-based functional assays, other non-sGC proteins. On the procedure: (§1) The secondary pharmacological profile (i.e., sGC-independent activity) of GSK2181236A was assessed in cell-based functional assays by characterizing the interaction between GSK2181236A and 38 distinct human enzymes, ion channels, transporters, and G-protein-coupled receptors including 5-HT (5-HT1B/2A/2C/3), 5-HT transporter (SERT), adenosine (A2a), adrenergic (α1B/2C, β2), Aurora B kinase, cycoloxygenase-2 (COX-2), CaV1.2, cytochrome P450 (CYP2C19, 2D6, and 3A4), dopamine (D2), dopamine transporter (DAT), gamma-aminobutyric acid (GABAA), glycogen synthase kinase-3 (GSK3β) histamine (H1), KV1.5, KV7.1, KV11.1, lymphocyte-specific protein tyrosine kinase (LCK), L-monoamine oxidase (MAO-B) muscarinic (M1/2), NaV1.5, nicotinic (α1 nAChR), noradrenaline transporter (NET), opioid (κ, μ), organic anion transporting polypeptide C (OATP1B1), phosphodiesterase 5 (PDE5), phosphatidylinositol 3-kinase (PI3Kγ), pregnane X receptor (PXR), tachykinin (NK1), and vasopressin (V1a).

Data set [2] deals with T1, human sGC (Homo sapiens, UniProt Q02153).
T1 sequence (Q02153 1-619): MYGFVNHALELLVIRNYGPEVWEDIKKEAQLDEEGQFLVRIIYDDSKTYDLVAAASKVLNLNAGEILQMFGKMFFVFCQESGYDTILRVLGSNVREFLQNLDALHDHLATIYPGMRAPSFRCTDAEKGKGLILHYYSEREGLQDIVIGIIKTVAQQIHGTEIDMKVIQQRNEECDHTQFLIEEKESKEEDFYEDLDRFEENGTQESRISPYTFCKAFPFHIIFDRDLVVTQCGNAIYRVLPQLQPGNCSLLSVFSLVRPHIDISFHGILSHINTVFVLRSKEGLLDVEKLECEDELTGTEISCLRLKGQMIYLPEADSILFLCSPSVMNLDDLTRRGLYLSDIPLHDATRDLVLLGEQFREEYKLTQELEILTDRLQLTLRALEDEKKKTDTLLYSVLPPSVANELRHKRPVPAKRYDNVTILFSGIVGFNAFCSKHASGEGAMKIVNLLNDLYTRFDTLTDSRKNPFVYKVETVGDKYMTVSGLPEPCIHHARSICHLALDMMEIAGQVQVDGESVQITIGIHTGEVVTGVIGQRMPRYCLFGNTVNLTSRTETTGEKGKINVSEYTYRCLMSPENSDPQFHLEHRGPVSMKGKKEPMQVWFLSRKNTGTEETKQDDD
T1 sequence (Q02108 1-690 partner): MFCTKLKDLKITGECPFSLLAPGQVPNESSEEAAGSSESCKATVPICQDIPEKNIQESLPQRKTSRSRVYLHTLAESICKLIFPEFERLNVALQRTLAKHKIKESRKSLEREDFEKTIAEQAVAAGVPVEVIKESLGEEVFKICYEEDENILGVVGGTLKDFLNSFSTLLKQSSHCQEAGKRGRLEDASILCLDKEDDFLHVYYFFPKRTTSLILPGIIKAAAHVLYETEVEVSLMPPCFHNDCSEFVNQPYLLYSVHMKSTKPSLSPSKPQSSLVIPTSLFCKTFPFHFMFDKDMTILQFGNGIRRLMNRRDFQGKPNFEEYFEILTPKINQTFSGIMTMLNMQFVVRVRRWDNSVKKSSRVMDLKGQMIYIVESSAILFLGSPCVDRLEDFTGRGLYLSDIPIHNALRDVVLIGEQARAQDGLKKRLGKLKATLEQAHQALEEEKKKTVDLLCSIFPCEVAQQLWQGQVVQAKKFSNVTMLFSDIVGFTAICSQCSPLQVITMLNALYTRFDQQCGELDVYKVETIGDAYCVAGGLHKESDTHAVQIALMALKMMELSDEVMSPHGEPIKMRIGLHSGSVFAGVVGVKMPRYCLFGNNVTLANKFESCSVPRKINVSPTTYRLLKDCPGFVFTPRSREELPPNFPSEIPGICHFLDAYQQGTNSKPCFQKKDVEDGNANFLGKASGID
The data set can be described thus: primary cell-free human sGC enzyme assay (cGMP formation). The format is biochemical. The following applies: data not shown.

For data set [3], the target named is T2, OATP1B1 (Homo sapiens, UniProt Q9Y6L6).
T2 sequence (Q9Y6L6 1-691): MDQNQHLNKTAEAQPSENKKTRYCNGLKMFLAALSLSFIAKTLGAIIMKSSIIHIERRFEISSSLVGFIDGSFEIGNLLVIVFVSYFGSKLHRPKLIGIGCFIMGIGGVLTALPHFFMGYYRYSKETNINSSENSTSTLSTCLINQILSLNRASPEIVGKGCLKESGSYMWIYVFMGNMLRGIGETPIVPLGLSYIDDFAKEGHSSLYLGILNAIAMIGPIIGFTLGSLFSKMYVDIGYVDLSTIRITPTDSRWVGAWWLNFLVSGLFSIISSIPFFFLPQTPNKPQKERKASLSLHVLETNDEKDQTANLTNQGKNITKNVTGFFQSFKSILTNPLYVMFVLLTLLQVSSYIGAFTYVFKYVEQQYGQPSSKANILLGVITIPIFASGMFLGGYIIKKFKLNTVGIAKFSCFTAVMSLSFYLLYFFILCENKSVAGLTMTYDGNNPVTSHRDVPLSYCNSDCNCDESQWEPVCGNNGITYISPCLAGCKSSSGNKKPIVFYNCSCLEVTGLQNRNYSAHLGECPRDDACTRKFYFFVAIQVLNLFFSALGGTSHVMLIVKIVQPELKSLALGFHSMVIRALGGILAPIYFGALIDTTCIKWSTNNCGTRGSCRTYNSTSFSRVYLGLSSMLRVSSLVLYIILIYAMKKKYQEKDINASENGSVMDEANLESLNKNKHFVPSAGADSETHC
The data set can be described thus: in vitro selectivity profile: OATP1B1 transporter activity. In kind it is cell-based. On the procedure: as §1

In general, EC50 refers to the concentration needed to bring the measured effect to its halfway point. Usually IC50 stands for the midpoint of a concentration-inhibition curve. Regarding `Cc1cc(-c2ccc(OC(F)(F)F)cc2)ccc1COc1ccccc1-c1cccc(-n2ncc(C(=O)O)c2C(F)(F)F)n1` [GSK2181236A, 1-(6-{2-[({3-methyl-4′-[(trifluoromethyl)oxy]-4-biphenylyl}methyl)oxy]phenyl}-2-pyridinyl)-5-(trifluoromethyl)-1H-pyrazole-4-carboxylic acid], in data set [1], the “Interactions (EC50s or IC50s) at all other proteins tested” value was at least 2500 nM. Also, the “interaction with sGC more potent than any other non-sGC protein tested” value in data set [1] (cell-based assays) is given as “at least 23 fold”. Also, in data set [1] (vs P-VASP EC50 12.7 nM), the “selectivity for sGC over all other tested proteins” value is at least 197 fold. Moreover, a half-maximal effect in data set [2] (EC50) was put at 25 nM. Further, the selectivity ratio in data set [3] (human, cell-based functional assay (human OATP1B1 transporter), vs P-VASP EC50 12.7 nM, read-out: selectivity for sGC over OATP1B1) is 23. The IC50 in data set [3] (read-out: IC50, inhibition of transporter activity) came out at 300 nM.
